Laboratory results as given in US11673883B2, “Heterocyclic compounds as immunomodulators” (Incyte Corporation, priority 2016, dated 2023).
pIC50: −log10 of the molar value.

Each molecule was assayed against PD-1/PD-L1 protein/protein interaction (Homo sapiens (Human), UniProt Q9NZQ7) (assay: PD-1/PD-L1 Homogeneous Time-Resolved Fluorescence (HTRF) Binding Assay). Settings: recombinant human PD-L1 (19-238) His-tag, human PD-1 (25-167) Fc tag; 25° C., PBS pH 7.4.
Method: Example A. PD-1/PD-L1 Homogeneous Time-Resolved Fluorescence (HTRF) Binding Assay
The assays were conducted in a standard black 384-well polystyrene plate with a final volume of 20 μL. Inhibitors were first serially diluted in DMSO and then added to the plate wells before the addition of other reaction components. The final concentration of DMSO in the assay was 1%. The assays were carried out at 25° C. in the PBS buffer (pH 7.4) with 0.05% Tween-20 and 0.1% BSA. Recombinant human PD-L1 protein (19-238) with a His-tag at the C-terminus was purchased from AcroBiosystems (PD1-H5229). Recombinant human PD-1 protein (25-167) with Fc tag at the C-terminus was also purchased from AcroBiosystems (PD1-H5257). PD-L1 and PD-1 proteins were diluted in the assay buffer and […] was added to the plate well. Plates were centrifuged and proteins were preincubated with inhibitors for 40 minutes. The incubation was followed by the addition of 10 μL of HTRF detection buffer supplemented with Europium cryptate-labeled anti-human IgG (PerkinElmer-AD0212) specific for Fc and anti-His antibody conjugated to SureLight®-Allophycocyanin (APC, PerkinElmer-AD0059H). After centrifugation, the plate was incubated at 25° C. for 60 min. before reading on a PHERAstar FS plate reader (665 nm/620 nm ratio). Final concentrations in the assay were […], 10 nM PD-L1, 1 nM europium anti-human IgG and 20 nM anti-His-Allophycocyanin. IC50 determination was performed by fitting the curve of percent control activity versus the log of the inhibitor concentration using the GraphPad Prism 5.0 software.

Sequence of PD-1/PD-L1 protein/protein interaction (Q9NZQ7 19-238): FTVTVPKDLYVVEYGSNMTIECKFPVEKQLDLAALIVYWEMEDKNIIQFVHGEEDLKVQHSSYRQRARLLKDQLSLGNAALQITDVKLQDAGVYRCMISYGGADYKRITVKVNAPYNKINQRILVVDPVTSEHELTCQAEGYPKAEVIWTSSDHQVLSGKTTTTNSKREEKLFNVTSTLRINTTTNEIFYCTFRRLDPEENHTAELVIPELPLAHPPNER

`CC(O)C1CCN(C2CCN(c3cccc(-c4ccc5c(c4)OCCO5)c3C#N)CC2)C1` (centres unmarked) [Example 21, 2-(2,3-dihydrobenzo[b][1,4]dioxin-6-yl)-6-(4-(3-(1-hydroxyethyl)pyrrolidin-1-yl)piperidin-1-yl)benzonitrile] and `N#Cc1c(-c2ccc3c(c2)OCCO3)cccc1N1CCC(N2CCC(CO)C2)CC1` (centres unmarked) [Example 25, 2-(2,3-dihydrobenzo[b][1,4]dioxin-6-yl)-6-(4-(3-(hydroxymethyl)pyrrolidin-1-yl)piperidin-1-yl)benzonitrile] cannot be ordered by pIC50: at least 7.00 for the first, at least 7.00 for the second.

`CC1(NC2CCN(c3cccc(-c4ccc5c(c4)OCCO5)c3C#N)CC2)CC1` [Example 22, 2-(2,3-dihydrobenzo[b][1,4]dioxin-6-yl)-6-(4-(1-methylcyclopropylamino)piperidin-1-yl)benzonitrile] and `N#Cc1c(-c2ccc3c(c2)OCCO3)cccc1N1CCC(N[C@H]2C[C@H](CO)C2)CC1` [Example 23, 2-(2,3-dihvdrobenzo[b][1,4]dioxin-6-yl)-6-(4-(trans-3-(hydroxymethyl)cyclobutyl-amino)piperidin-1-yl)benzonitrile] cannot be ordered by pIC50: at least 7.00 for the first, at least 7.00 for the second.

`N#Cc1c(-c2ccc3c(c2)OCCO3)cccc1N1CCC(N[C@H]2CC[C@H](O)CC2)CC1` [Example 24, 2-(2,3-dihydrobenzo[b][1,4]dioxin-6-yl)-6-(4-(trans-4-hydroxycyclohexylamino)piperidin-1-yl)benzonitrile] and `Cc1c(-c2ccccc2)cccc1N1CCC(N[C@H]2CC[C@H](O)CC2)CC1` [Example 30, trans-4-(1-(2-methylbiphenyl-3-yl)piperidin-4-ylamino)cyclohexanol] cannot be ordered by pIC50: at least 7.00 for the first, at least 7.00 for the second.

`Cc1c(-c2ccccc2)cccc1N1CCC(NCC2(CO)CC2)CC1` [Example 26, (1-((1-(2-methylbiphenyl-3-yl)piperidin-4-ylamino)methyl)cyclopropyl)methanol] and `Cc1c(-c2ccccc2)cccc1N1CCC(NC2CC2)CC1` [Example 36, N-cyclopropyl-1-(2-methylbiphenyl-3-yl)piperidin-4-amine] cannot be ordered by pIC50: at least 7.00 for the first, at least 7.00 for the second.

`Cc1c(-c2ccccc2)cccc1N1CCC(NCC(=O)N2CCN(C(C)C)CC2)CC1` [Example 27, 1-(4-isopropylpiperazin-1-yl)-2-(1-(2-methylbiphenyl-3-yl)piperidin-4-ylamino)ethanone] and `CC[C@H](CO)NC1CCN(c2cccc(-c3ccccc3)c2C)CC1` [Example 35, (R)-2-(1-(2-methylbiphenyl-3-yl)piperidin-4-ylamino)butan-l-ol] cannot be ordered by pIC50: 6.30 to 7.00 for the first, at least 7.00 for the second.

`Cc1c(-c2ccccc2)cccc1N1CCC(N[C@H]2C[C@H](O)C2)CC1` [Example 28, trans-3-(1-(2-methylbiphenyl-3-yl)piperidin-4-ylamino)cyclobutanol] and `Cc1c(-c2ccccc2)cccc1N1CCC(N[C@H]2C[C@@H](O)C2)CC1` [Example 29, cis-3-(1-(2-methylbiphenyl-3-yl)piperidin-4-ylamino)cyclobutanol] cannot be ordered by pIC50: at least 7.00 for the first, at least 7.00 for the second.

`Cc1c(-c2ccccc2)cccc1N1CCC(NCCc2cnn(C)c2)CC1` [Example 31, N-(2-(1-methyl-1H-pyrazol-4-yl)ethyl)-1-(2-methylbiphenyl-3-yl)piperidin-4-amine] and `Cc1c(-c2ccccc2)cccc1N1CCC(NC2CC(CO)C2)CC1` (centres unmarked) [Example 43, (3-(1-(2-methylbiphenyl-3-yl)piperidin-4-ylamino)cyclobutyl) methanol] cannot be ordered by pIC50: at least 7.00 for the first, at least 7.00 for the second.

`Cc1c(-c2ccccc2)cccc1N1CCC(N2CCCC2)CC1` [Example 32, 1-(2-methylbiphenyl-3-yl)-4-(pyrrolidin-1-yl)piperidine] and `Cc1c(-c2ccccc2)cccc1N1CCC(NC2CCCC2)CC1` [Example 37, N-cyclopentyl-1-(2-methylbiphenyl-3-yl)piperidin-4-amine] cannot be ordered by pIC50: at least 7.00 for the first, at least 7.00 for the second.

`Cc1c(-c2ccccc2)cccc1N1CCC(N[C@H]2CC[C@@H](O)CC2)CC1` [Example 33, cis-4-(1-(2-methylbiphenyl-3-yl)piperidin-4-ylamino)cyclohexanol] and `Cc1c(-c2ccccc2)cccc1N1CCC(NC2CCC(CC#N)CC2)CC1` (centres unmarked) [Example 39, 2-(4-(1-(2-methylbiphenyl-3-yl)piperidin-4-ylamino)cyclohexyl) acetonitrile] cannot be ordered by pIC50: at least 7.00 for the first, at least 7.00 for the second.

`Cc1c(-c2ccccc2)cccc1N1CCC(NC2CC(C(=O)O)C2)CC1` (centres unmarked) [Example 45, 3-(1-(2-methylbiphenyl-3-yl)piperidin-4-ylamino)cyclobutane-carboxylic acid] and `COc1cccc(-c2cccc(N3CCC(N4CCCC4)CC3)c2C#N)c1` [Example 48, 3′-methoxy-3-(4-(pyrrolidin-1-yl)piperidin-1-yl)biphenyl-2-carbonitrile] cannot be ordered by pIC50: at least 7.00 for the first, 6.30 to 7.00 for the second.

`N#Cc1c(-c2cccc(F)c2)cccc1N1CCC(N2CCCC2)CC1` [Example 49, 3′-fluoro-3-(4-(pyrrolidin-1-yl)piperidin-1-yl)biphenyl-2-carbonitrile] and `N#Cc1c(C2=CCCCC2)cccc1N1CCC(N2CCCC2)CC1` [Example 50, 2-cyclohexenyl-6-(4-(pyrrolidin-1-yl)piperidin-1-yl)benzonitrile] cannot be ordered by pIC50: at least 7.00 for the first, at least 7.00 for the second.

In the case of `N#Cc1c(C2CCCCC2)cccc1N1CCC(N2CCCC2)CC1` [Example 51, 2-cyclohexyl-6-(4-(pyrrolidin-1-yl)piperidin-1-yl)benzonitrile], the pIC50 was 6.30 to 7.00.
